Assay results: patent US20240158446A1, “CYCLIC COMPOUND HAVING SELECTIVE INHIBITORY ACTION ON KRAS OVER HRAS AND NRAS” (CHUGAI SEIYAKU KABUSHIKI KAISHA, priority 2021, published 2024)
pKd: −log10 of the molar value. Read-outs that look alike come from different tables or passages of the source. Where a SMILES comes first, the peptide text is derived from it. Bridges are numbered along the chain shown (N, C = ends). [ ]: non-standard residue; d: D form. The star is where a group is joined. hPhe(3,5-F2-4-CF3) = N[C@@H](CCc1cc(F)c(C(F)(F)F)c(F)c1)C(=O)O; hPhe(3-Cl-4-CF3) = N[C@@H](CCc1ccc(C(F)(F)F)c(Cl)c1)C(=O)O; NPrPhe(4-CF3) = CCCN[C@@H](Cc1ccc(C(F)(F)F)cc1)C(=O)O; NMeGly(cPent) = CN[C@H](C(=O)O)C1CCCC1; cisHyp = O=C(O)[C@@H]1C[C@H](O)CN1; NMeD = CN[C@@H](CC(=O)O)C(=O)O; NMeL = CN[C@@H](CC(C)C)C(=O)O; αMeV = CC(C)[C@](C)(N)C(=O)O; Morpholide = C1CN(*)CCO1; Ac5c = NC1(C(=O)O)CCCC1; Aze = O=C(O)[C@@H]1CCN1; Sar = CNCC(=O)O

Tests used:
[1] = molecular target: GDP-bound KRAS wild-type protein (Homo sapiens, UniProt P01116); assay: Binding to KRAS by surface plasmon resonance (SPR), Single Cycle Kinetics; conditions: GDP-bound KRAS wild-type protein, read-out: KRAS KD
Sequence of GDP-bound KRAS wild-type protein (P01116 whole entry): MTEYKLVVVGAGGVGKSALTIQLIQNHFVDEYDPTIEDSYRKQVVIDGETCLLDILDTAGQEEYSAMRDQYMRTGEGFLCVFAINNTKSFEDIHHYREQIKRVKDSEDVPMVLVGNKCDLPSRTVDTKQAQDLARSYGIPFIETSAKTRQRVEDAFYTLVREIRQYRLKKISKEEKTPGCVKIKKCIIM

[2] = molecular target: GDP-bound NRAS wild-type protein (Homo sapiens, UniProt P01111); assay: Binding to NRAS by surface plasmon resonance (SPR), Single Cycle Kinetics; conditions: SPR; for NRAS/KRAS (ratio of KD value for NRAS to KD value for KRAS) / NRAS/KRAS (ratio of KD value with respect to NRAS to KD value with respect to KRAS): GDP-bound NRAS wild-type protein vs GDP-bound KRAS wild-type protein
Sequence of GDP-bound NRAS wild-type protein (P01111 whole entry): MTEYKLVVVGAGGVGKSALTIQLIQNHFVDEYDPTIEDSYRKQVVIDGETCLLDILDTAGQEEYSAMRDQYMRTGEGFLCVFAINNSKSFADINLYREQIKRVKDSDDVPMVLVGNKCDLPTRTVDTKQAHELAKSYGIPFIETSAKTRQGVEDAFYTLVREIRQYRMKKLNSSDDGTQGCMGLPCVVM

[3] = molecular target: GDP-bound HRAS wild-type protein (Homo sapiens, UniProt P01112); assay: Binding to HRAS by surface plasmon resonance (SPR), Single Cycle Kinetics; conditions: SPR; for HRAS/KRAS (ratio of KD value for HRAS to KD value for KRAS) / HRAS/KRAS (ratio of KD value with respect to HRAS to KD value with respect to KRAS): GDP-bound HRAS wild-type protein vs GDP-bound KRAS wild-type protein
Sequence of GDP-bound HRAS wild-type protein (P01112 whole entry): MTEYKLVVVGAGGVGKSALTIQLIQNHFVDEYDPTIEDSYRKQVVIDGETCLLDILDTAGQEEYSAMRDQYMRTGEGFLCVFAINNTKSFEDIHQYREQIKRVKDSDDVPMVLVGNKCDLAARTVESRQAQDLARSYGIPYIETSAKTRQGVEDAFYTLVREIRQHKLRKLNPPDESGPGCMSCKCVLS

[4] = SPR Single Cycle Kinetics, 1:1 binding model
[5] = SPR, Single Cycle Kinetics, 1:1 binding model

pKd ([1]; SPR, Single Cycle Kinetics)	pKd [1, 4]	Compound	NRAS/KRAS (ratio of KD value for NRAS to KD value for KRAS) [2]	HRAS/KRAS (ratio of KD value for HRAS to KD value for KRAS) [3]	NRAS/KRAS (ratio of KD value with respect to NRAS to KD value with respect to KRAS) [2]	HRAS/KRAS (ratio of KD value with respect to HRAS to KD value with respect to KRAS) [3]	also measured
9.64		CCCO[C@@H]1C[C@H]2C(=O)NC3(CC(C)(C)C3)C(=O)N(C)[C@@H](C3CCCC3)C(=O)N(C)[C@H](C(=O)N3CCCC3)CC(=O)N(C)[C@H]3CCCc4ccc(cc4)C[C@@H](C(=O)N(C)CC(=O)N[C@@H](CCc4ccc(C(F)(F)F)c(OC)c4)C(=O)N2C1)N1CC/C=C\C[C@@H](C1=O)N(C)C(=O)CN(C)C(=O)[C@H]([C@@H](C)CC)NC3=O [PP3065]	A (a compound having 10 or more and less than 20 is denoted as A)	B (a compound having 3 or more and less than 10 is denoted as B)			
	9.05	CCCN1C(=O)[C@@H]2CCN2C(=O)CN(C)C(=O)[C@H]([C@@H](C)CC)NC(=O)[C@H](CC(C)C)N(C)C(=O)C[C@@H](C(=O)N2CCOCC2)N(C)C(=O)[C@H](C2CCCC2)N(C)C(=O)[C@](C)(C(C)C)NC(=O)[C@@H]2CCCN2C(=O)[C@H](CCc2cc(F)c(C(F)(F)F)c(F)c2)NC(=O)CN(C)C(=O)[C@@H]1Cc1ccc(C(F)(F)F)cc1 [PP0792] ([NMeL]I[Sar][Aze][NPrPhe(4-CF3)][Sar][hPhe(3,5-F2-4-CF3)]P[αMeV][NMeGly(cPent)][NMeD]-Morpholide; lactam N-11)			C (A compound having a KD ratio of 0.1 or more and less than 3 is denoted as C)	B (a compound having 3 or more and less than 10 is denoted as B)	
9.26		CCO[C@@H]1C[C@H]2C(=O)NC3(CCC3)C(=O)N(C)[C@@H](C(C)C)C(=O)N(C)[C@H](C(=O)N(C)C)CC(=O)N(C)[C@@H](CC)C(=O)N[C@@H]([C@@H](C)CC)C(=O)N(C)CC(=O)N(C)[C@H]3C/C=C\CCN(C3=O)[C@@H](Cc3ccc(C(F)(F)F)cc3)C(=O)N(C)CC(=O)N[C@@H](CCc3cc(F)c(C(F)(F)F)c(F)c3)C(=O)N2C1 [PP1088]	A (a compound having 10 or more and less than 20 is denoted as A)	A (a compound having 10 or more and less than 20 is denoted as A)			
9.47		CCC[C@H]1C(=O)N[C@@H]([C@@H](C)CC)C(=O)N(C)CC(=O)N(C)[C@H]2C/C=C\CCN(C2=O)[C@@H](CC2CCC(F)(F)CC2)C(=O)N(C)CC(=O)N[C@@H](CCc2ccc(C(F)(F)F)c(OC)c2)C(=O)N2C[C@H](OCC)C[C@H]2C(=O)N(C)C2(CCC2)C(=O)N(C)[C@@H](C2CCCC2)C(=O)N(C)[C@H](C(=O)N(C)C)CC(=O)N1C [PP2348]	A (a compound having 10 or more and less than 20 is denoted as A)	A (a compound having 10 or more and less than 20 is denoted as A)			
		CCO[C@@H]1C[C@H]2C(=O)NC3(CCCC3)C(=O)N(C)[C@@H](C3CCCC3)C(=O)N(C)[C@H](C(=O)N(C)CC)CC(=O)N(C)[C@@H](CC(C)C)C(=O)N[C@@H]([C@@H](C)CC)C(=O)N(C)CC(=O)N(C)[C@H]3C/C=C\CCN(C3=O)[C@@H](Cc3ccc(C(F)(F)F)cc3)C(=O)N(C)CC(=O)N[C@@H](CCc3cc(F)c(C(F)(F)F)c(F)c3)C(=O)N2C1 [PP1574, (2S,8S,12R,14S,20S,23S,27S,30S,36S,38Z)-20-cyclopentyl-8-[2-[3,5-difluoro-4-(trifluoromethyl)phenyl]ethyl]-12-ethoxy-N-ethyl-27-isobutyl-N,4,19,22,26,32,35-heptamethyl-30-[(1S)-1-methylpropyl]-3,6,9,15,18,21,25,28,31,34,42-undecaoxo-2-[[4-(trifluoromethyl)phenyl]methyl]spiro[1,4,7,10,16,19,22,26,29,32,35-undecazatricyclo[34.5.1.0^10,14]dotetracont-38-ene-17,1′-cyclopentane]-23-carboxamide]					pKd [1, 5]: 9.82; NRAS/KRAS (ratio of KD value for NRAS to KD value for KRAS) ([2]; KD ratio class): A (a compound having 10 or more and less than 20 is denoted as A); HRAS/KRAS (ratio of KD value for HRAS to KD value for KRAS) ([3]; KD ratio class): A (a compound having 10 or more and less than 20 is denoted as A)
		CC[C@H](C)[C@@H]1NC(=O)[C@H](CC2CC2)N(C)C(=O)C[C@@H](C(=O)N(C)C)N(C)C(=O)[C@H](C2CCCC2)N(C)C(=O)C2(CC(C)(C)C2)NC(=O)[C@@H]2C[C@@H](C(F)(F)F)CN2C(=O)[C@H](CCc2cc(F)c(C(F)(F)F)c(F)c2)NC(=O)CN(C)C(=O)[C@H](Cc2ccc(C(F)(F)F)cc2)N2CC/C=C\C[C@@H](C2=O)N(C)C(=O)CN(C)C1=O [PP1504]					pKd [1, 5]: 9.49; NRAS/KRAS (ratio of KD value for NRAS to KD value for KRAS) ([2]; KD ratio class): A (a compound having 10 or more and less than 20 is denoted as A); HRAS/KRAS (ratio of KD value for HRAS to KD value for KRAS) ([3]; KD ratio class): A (a compound having 10 or more and less than 20 is denoted as A)
	9.51	CCCN1C(=O)CN(C)C(=O)CN(C)C(=O)[C@H]([C@@H](C)CC)NC(=O)[C@H](CC(C)C)N(C)C(=O)C[C@@H](C(=O)N2CCOCC2)N(C)C(=O)[C@H](C2CCCC2)N(C)C(=O)C2(CCCC2)NC(=O)[C@@H]2C[C@H](OCC)CN2C(=O)[C@H](CCc2ccc(C(F)(F)F)c(Cl)c2)NC(=O)CN(C)C(=O)[C@@H]1Cc1ccc(C(F)(F)F)cc1 [PP0243] ([NMeL]I[Sar][Sar][NPrPhe(4-CF3)][Sar][hPhe(3-Cl-4-CF3)][cisHyp](Et)[Ac5c][NMeGly(cPent)][NMeD]-Morpholide; lactam N-11)	B (a compound having 3 or more and less than 10 is denoted as B)	C (A compound having a KD ratio of 0.1 or more and less than 3 is denoted as C)			
	9.41	CC[C@H](C)[C@@H]1NC(=O)[C@H](CC(C)C)N(C)C(=O)C[C@@H](C(=O)N2CCOCC2)N(C)C(=O)[C@H](C2CCCC2)N(C)C(=O)C2(CCCC2)NC(=O)[C@@H]2CCCN2C(=O)[C@H](CCc2ccc(C(F)(F)F)c(Cl)c2)NC(=O)CN(C)C(=O)[C@H](Cc2ccc(F)cc2)N2CCCCC[C@@H](C2=O)N(C)C(=O)CN(C)C1=O [PP0612]			B (a compound having 3 or more and less than 10 is denoted as B)	B (a compound having 3 or more and less than 10 is denoted as B)	
10.40		CCO[C@@H]1C[C@H]2C(=O)NC3(CC(C)(C)C3)C(=O)N(C)[C@@H](C3CCCC3)C(=O)N(C)[C@H](C(=O)N(C)C)CC(=O)N(C)[C@H]3CCCC/C=C/c4ccc(cc4)C[C@@H](C(=O)N(C)CC(=O)N[C@@H](CCc4ccc(C(F)(F)F)c(OC)c4)C(=O)N2C1)N1CC/C=C\C[C@@H](C1=O)N(C)C(=O)CN(C)C(=O)[C@H]([C@@H](C)CC)NC3=O [PP1832]					NRAS/KRAS (KD ratio) ([2]; ratio of KD for GDP-bound NRAS wild-type protein to KD for KRAS): B (a compound having 3 or more and less than 10 is denoted as B); HRAS/KRAS (KD ratio) ([3]; ratio of KD for GDP-bound HRAS wild-type protein to KD for KRAS): B (a compound having 3 or more and less than 10 is denoted as B)
9.37		CCO[C@@H]1C[C@H]2C(=O)NC3(CCC3)C(=O)N(C)[C@@H](C3CCCC3)C(=O)N(C)[C@H](C(=O)N(C)C)CC(=O)N(C)[C@@H](CC(C)C)C(=O)N[C@@H]([C@@H](C)CC)C(=O)N3CC[C@H]3C(=O)N(C)[C@H]3CC(C)=CCN(C3=O)[C@@H](Cc3ccc(C(F)(F)F)cc3)C(=O)N(C)CC(=O)N[C@@H](CCc3cc(F)c(C(F)(F)F)c(F)c3)C(=O)N2C1 [PP1033]	C (A compound having a KD ratio of 0.1 or more and less than 3 is denoted as C)	C (A compound having a KD ratio of 0.1 or more and less than 3 is denoted as C)			
10.30		CC[C@H](C)[C@@H]1NC(=O)[C@@H]2CCCCCCc3ccc(cc3)C[C@@H](C(=O)N(C)CC(=O)N[C@@H](CCc3ccc(C(F)(F)F)c(OC)c3)C(=O)N3C[C@H](OC4CCC4)C[C@H]3C(=O)NC3(CC(C)(C)C3)C(=O)N(C)[C@@H](C3CCCC3)C(=O)N(C)[C@H](C(=O)N(C)C)CC(=O)N2C)N2CC/C=C\C[C@@H](C2=O)N(C)C(=O)CN(C)C1=O [PP3068]	A (a compound having 10 or more and less than 20 is denoted as A)	B (a compound having 3 or more and less than 10 is denoted as B)			
	7.64	CCO[C@@H]1C[C@H]2C(=O)NC3(CCC3)C(=O)N(C)[C@@H](C3CCCC3)C(=O)N(CCc3ccccc3)[C@H](C(=O)N(C)C)CC(=O)N(C)[C@@H](CC)C(=O)N[C@@H]([C@@H](C)CC)C(=O)N(C)CC(=O)N(C)[C@H]3CCCCCN(C3=O)[C@@H](Cc3ccc(C(F)(F)F)cc3)C(=O)N(C)CC(=O)N[C@@H](CCc3cc(F)c(C(F)(F)F)c(F)c3)C(=O)N2C1 [PP0637]			B (a compound having 3 or more and less than 10 is denoted as B)	B (a compound having 3 or more and less than 10 is denoted as B)	

Compound	pKd ([1]; SPR, Single Cycle Kinetics)	pKd [1, 4]	NRAS/KRAS (ratio of KD value for NRAS to KD value for KRAS) [2]	HRAS/KRAS (ratio of KD value for HRAS to KD value for KRAS) [3]	NRAS/KRAS (ratio of KD value with respect to NRAS to KD value with respect to KRAS) [2]	HRAS/KRAS (ratio of KD value with respect to HRAS to KD value with respect to KRAS) [3]	also measured
CC[C@H](C)[C@@H]1NC(=O)[C@H](CC(C)C)N(C)C(=O)C[C@@H](C(=O)N2CCCCC2)N(C)C(=O)[C@H](C2CCCC2)N(C)C(=O)C2(CCCC2)NC(=O)[C@@H]2CCCN2C(=O)[C@H](CCc2cc(F)c(C(F)(F)F)c(F)c2)NC(=O)CN(C)C(=O)[C@H](Cc2ccc(C(F)(F)F)cc2)N2CCCC[C@@H](C2=O)N(C)C(=O)CN(C)C1=O [PP0572]		9.85			B (a compound having 3 or more and less than 10 is denoted as B)	B (a compound having 3 or more and less than 10 is denoted as B)	
